Data from patent US11419843B2, “Small molecule BCL-2 functional converters as cancer therapeutics” (Oregon State University, priority 2016, dated 2022).

Columns and labels:
[1] = test system: H460 parental and resistant cells; experiment: Annexin-V apoptosis assay in H460 parental and resistant cells; format: cell-based, human; details: BFC1108 20 μM, 48 hours
Experimental: FIG. 25E is the results of Annexin-V apoptosis assay in H460 cells treated for 48 hours with vehicle or paclitaxel 10 nM, quantification right panel.
Cells were seeded into 6 well tissue culture plates to give approximately 50% confluence and allowed to attach overnight. The cells were then treated for a period of time indicated in figure legend with the appropriate compound at various concentrations (see figure legends). An Annexin V-conjugate PerCP-eFluor 710 apoptosis detection kit was used as described by the manufacturer's protocol (eBioscience 88-8008). Harvesting of cells included collection of floating and attached cells following trypsinization. Data were acquired using an CytoFLEX S flow cytometer (Beckman Coulter, Brea, Calif.) and 10,000 events on the PC5.5 channel were analyzed using CytExpert software (Beckman Coulter). For Nur77 GFP tagged annexin V analysis, GFP positive population were selected and then Annexin V+population was determined. For each sample, 10,000 GFP+ events were collected. Annexin V positive cell population was considered to be the apoptotic population, and the percent of annexin V positive cell population was used to determine the extent of apoptosis.

[2] = test system: MEF Bcl-2−/− and WT MEF cells; experiment: Colony forming ability of MEFs; format: cell-based, mouse; details: 10 μM, 10% FBS, 48 h
[3] = test system: H460 parental and resistant cells; experiment: Colony formation (2D clonogenic, 3D soft agar) of H460 parental and resistant cells; format: cell-based, human; details: treated continuously for 14 days
Text: Colony forming ability (%) relative to vehicle treatment. Representative of three independent conducted assays in triplicate.

[4] = low dose; cited from earlier work
[5] = test system: WT and Bcl-2−/− MEFs; experiment: Viability of WT and Bcl-2-/- MEFs; format: cell-based, mouse; details: indicated concentrations, 10% FBS
Experimental: FIG. 9E depicts effect of methotrexate in certain cancer cell types. Left Panel: Bcl-2 levels in WT and Bcl-2−/− MEFs. Right panel: MEF cells were exposed to indicated concentrations of Methotrexate in medium containing 10% FBS and viability was determined by cell titer glo assay.
Cell viability was determined using CellTiter Glo Luminescent Cell Viability Assay (Promega, Madison, Wis.) as per manufacturer instructions. DAPI stain was used to assess apoptosis. Colony forming assays were performed as described previously.

[6] = molecular target: T1, Nur77 interaction with Bcl-2 (Homo sapiens, UniProt P10415); experiment: Co-immunoprecipitation, competition with Nur77 for Bcl-2; format: binding; details: 10 μM MTX, 16 h, HEK293T cells
T1 construct: expressed in transfected cells; host or cells: HEK293T
Experimental: Methotrexate reduced the interaction of Nur-77 with BCl-2 domain upon co-incubation indicating methotrexate interacts with the same region of loop domain as does Nur-77.
For CoIP experiments, HEK293T cells were plated in a 6 well plate and transfected with indicated expression plasmids by lipofectamine. The total amount of DNA was maintained at 2.5 μg. After 12 h of transfection, cells were treated with DMSO or 10 μM MTX for 16 h. The cells were then lysed on ice using RIPA buffer with freshly added protease inhibitor cocktail (Complete, mini, EDTA-free protease inhibitor cocktail, Roche, Inc.). The lysis buffer contained either DMSO or 10 μM MTX. Cell lysates were incubated on ice for 30 min and then spun at 14,000 rpm for 30 min at 4° C. Cleared lysates were incubated with Bcl-2 antibody (sc-509, Santacruz) and incubated at 4° C. for 2-4 h end-over-end mixing. After incubation a volume of sepharose beads (sc-2003, Santacruz) were added to each sample and left end-over-end mixing overnight at 4° C. The beads were then washed four times with RIPA buffer containing either DMSO or 10 μM and then solubilized in laemmli buffer. Proteins were analyzed on 10-12% SDS-PAGE and immunoblotted with mouse polyclonal anti-Bcl-2 (sc-509, Santacruz), mouse polyclonal anti-GFP (33-2600, Thermofisher).

[7] = test system: paclitaxel resistant H460 cells; experiment: Zebrafish xenograft model; format: in vivo, Zebrafish (Danio rerio); details: 1 to 4 days post injection
Experimental: Total area signifies total h460 cell area in zebrafish.
Zebrafish (Danio rerio) were housed at the Sinnhuber Aquatic Research Laboratory at Oregon State University in accordance with Institutional Animal Care and Use Committee protocols. Adult 5D Tropical zebrafish were maintained under standard laboratory conditions of 28±1° C. on a 14 hr light/10 hr dark photoperiod in fish water consisting of reverse osmosis water supplemented with a commercially available salt solution (0.6%, Instant Ocean, UnitedPet Group, Inc., Blacksburg, Va., USA). Collected eggs were staged according to Kimmel et al. At 24 hours post fertilization (hpf), zebrafish embryos were maintained in E3 media with phenylthiourea (0.003%, Sigma, USA).
For transplantations, H460 cells were labeled with a CM-DiI dye (Thermo Fisher Sci.) according to the manufacturer's protocol and suspended to a concentration of 2×10^7 cells/mL. […]
For imaging, zebrafish xenografts were anesthetized by emersion in 0.2 mg/mL Tricaine E3 media and imbedded in 0.8% (w/v) low melting point agarose on a glass bottom 96-well plate. […] H460 cancer growth was analyzed using Fiji (Fiji is Just Imagej) software. […] Cancer area was calculated by creating a binary mask from thresholds with the Otsu algorithm and calculating the total area of the resulting segmented objects. […]

[8] = test system: MDA-MB-231 cells with or without Bcl-2 expression vector; experiment: Transwell matrigel invasion assay; format: cell-based, human; details: 10 μM, 16 h
Experimental: FIG. 10F is MDA-MB231 cells with or without Bcl-2 expression vector were treated with 10 μM MTX or vehicle in a matrigel invasion chamber for 16 h and the membrane was then fixed, stained and number of cells invaded counted.
Invasion assay was performed using BD transwell invasion assay kit. MDA-MB-231 cells were treated for 16 h at 10 μM concentration and membrane was stained with prolong anti-fade DAPI stain and number of cells invaded were counted under a fluorescent microscope.

T1 sequence (P10415 whole entry): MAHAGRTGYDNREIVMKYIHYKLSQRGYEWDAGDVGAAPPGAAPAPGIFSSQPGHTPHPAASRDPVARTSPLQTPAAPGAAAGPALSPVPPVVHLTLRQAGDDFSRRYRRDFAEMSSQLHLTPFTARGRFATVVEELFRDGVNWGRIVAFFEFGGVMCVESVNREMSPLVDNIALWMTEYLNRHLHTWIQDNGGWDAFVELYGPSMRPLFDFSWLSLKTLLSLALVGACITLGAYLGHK

| Compound | Induction of apoptosis (Annexin V), H460 resistant vs parental [1] | Colony forming ability of MEF Bcl-2−/− cells [2] | Colony forming ability of WT MEFs [2] | Colony formation ability of H460 resistant vs parental line [3] | bioavailability [4] [%] | Bcl-2 dependent induction of apoptosis in MEFs with or without Bcl-2 [5] | Competition with Nur77 for interaction with Bcl-2 [6] | Growth of paclitaxel resistant H460 cells in zebrafish [7] | Invasive potential of Bcl-2 over-expressing cells vs vector controls [8] |
| --- | --- | --- | --- | --- | --- | --- | --- | --- | --- |
| CCOc1ccccc1NC(=O)c1cc(Cl)ccc1NC(=O)c1ccc(OC)cc1 [BFC1108, 5-chloro-N-(2-ethoxyphenyl)-2-[(4-methoxybenzoyl)amino]-benzamide] | induced apoptosis in the resistant line preferentially | absent | fewer colonies | reduced colony formation ability of resistant line preferentially | – | – | – | – | – |
| CN(Cc1cnc2nc(N)nc(N)c2n1)c1ccc(C(=O)N[C@@H](CCC(=O)O)C(=O)O)cc1 [MTX, (2S)-2-[[4-[(2,4 diaminopteridin-6-yl)methylmethylamino]benzoyl]amino] pentanedioc acid] | – | – | – | – | ≤ 70 | Bcl-2 dependent induction of apoptosis by MTX was also seen in mouse embryonic fibroblast cells with or without Bcl-2 | competition between MTX and Nur77 in interacting with the Bcl-2 protein could be seen | reduction in paclitaxel resistant H460 growth in vivo | inhibited the invasive potential of Bcl-2 over-expressing cells |
